Converted amounts (≈) assume the structure as drawn.
Tested on: Streptococcus pneumoniae
Assay: Antimicrobial activity against penicillin- and erythromycin-resistant Streptococcus pneumoniae
Assay type: functional

Row | Compound | MIC [µg/mL]
1 | CCCCC/C(NC(C)CCCN(CC)CC)=C1\C(=O)C(CCSC)N(C(=O)CC(C)CC(C)(C)C)C1=O (stereo not given) | 4 (≈ 7.25 µM)
2 | CCCCCCCCCCC/C(NCCCOC(C)C)=C1/C(=O)N[C@@H](CCCC(=O)NCCCOC(C)C)C1=O | 16 (≈ 28.3 µM)
3 | CCCCCCCCCCC/C(NCCCOC(C)C)=C1\C(=O)[C@@H]2CCCC(=O)N2C1=O | 16 (≈ 35.7 µM)

Tested on: Streptococcus pneumoniae
Assay: Antimicrobial activity against penicillin- and erythromycin-resistant Streptococcus pneumoniae in presence of 2.5% horse blood
Assay type: functional

Row | Compound | MIC [µg/mL]
4 | CCCCC/C(NC(C)CCCN(CC)CC)=C1\C(=O)C(CCSC)N(C(=O)CC(C)CC(C)(C)C)C1=O (stereo not given) | 8
5 | CCCCCCCCCCC/C(NCCCOC(C)C)=C1/C(=O)N[C@@H](CCCC(=O)NCCCOC(C)C)C1=O | > 64
6 | CCCCCCCCCCC/C(NCCCOC(C)C)=C1\C(=O)[C@@H]2CCCC(=O)N2C1=O | > 64

Tested on: Staphylococcus aureus
Assay: Antimicrobial activity against methicillin-sensitive Staphylococcus aureus ATCC 13709
Assay type: functional

Row | Compound | MIC [µg/mL]
7 | CCCCC/C(NC(C)CCCN(CC)CC)=C1\C(=O)C(CCSC)N(C(=O)CC(C)CC(C)(C)C)C1=O (stereo not given) | 16 (≈ 29 µM)
8 | CCCCCCCCCCC/C(NCCCOC(C)C)=C1/C(=O)N[C@@H](CCCC(=O)NCCCOC(C)C)C1=O | > 64
9 | CCCCCCCCCCC/C(NCCCOC(C)C)=C1\C(=O)[C@@H]2CCCC(=O)N2C1=O | > 64

Tested on: Staphylococcus aureus
Assay: Antimicrobial activity against vancomycin-susceptible Staphylococcus aureus ATCC 25923
Assay type: functional

Row | Compound | MIC [µg/mL]
10 | CCCCC/C(NC(C)CCCN(CC)CC)=C1\C(=O)C(CCSC)N(C(=O)CC(C)CC(C)(C)C)C1=O (stereo not given) | 16 (≈ 29 µM)
11 | CCCCCCCCCCC/C(NCCCOC(C)C)=C1/C(=O)N[C@@H](CCCC(=O)NCCCOC(C)C)C1=O | > 64
12 | CCCCCCCCCCC/C(NCCCOC(C)C)=C1\C(=O)[C@@H]2CCCC(=O)N2C1=O | > 64

Tested on: Staphylococcus aureus
Assay: Antimicrobial activity against Staphylococcus aureus Oxford
Assay type: functional

Row | Compound | MIC [µg/mL]
13 | CCCCC/C(NC(C)CCCN(CC)CC)=C1\C(=O)C(CCSC)N(C(=O)CC(C)CC(C)(C)C)C1=O (stereo not given) | 8 (≈ 14.5 µM)
14 | CCCCCCCCCCC/C(NCCCOC(C)C)=C1/C(=O)N[C@@H](CCCC(=O)NCCCOC(C)C)C1=O | > 64
15 | CCCCCCCCCCC/C(NCCCOC(C)C)=C1\C(=O)[C@@H]2CCCC(=O)N2C1=O | > 64

Tested on: Staphylococcus aureus
Assay: Antimicrobial activity against methicillin-resistant Staphylococcus aureus
Assay type: functional

Row | Compound | MIC [µg/mL]
16 | CCCCC/C(NC(C)CCCN(CC)CC)=C1\C(=O)C(CCSC)N(C(=O)CC(C)CC(C)(C)C)C1=O (stereo not given) | 16 (≈ 29 µM)
17 | CCCCCCCCCCC/C(NCCCOC(C)C)=C1/C(=O)N[C@@H](CCCC(=O)NCCCOC(C)C)C1=O | > 64
18 | CCCCCCCCCCC/C(NCCCOC(C)C)=C1\C(=O)[C@@H]2CCCC(=O)N2C1=O | > 64

Tested on: Enterococcus faecalis
Assay: Antimicrobial activity against vancomycin-susceptible Enterococcus faecalis ATCC 29212
Assay type: functional

Row | Compound | MIC [µg/mL]
19 | CCCCC/C(NC(C)CCCN(CC)CC)=C1\C(=O)C(CCSC)N(C(=O)CC(C)CC(C)(C)C)C1=O (stereo not given) | 16 (≈ 29 µM)
20 | CCCCCCCCCCC/C(NCCCOC(C)C)=C1/C(=O)N[C@@H](CCCC(=O)NCCCOC(C)C)C1=O | > 64
21 | CCCCCCCCCCC/C(NCCCOC(C)C)=C1\C(=O)[C@@H]2CCCC(=O)N2C1=O | > 64

Tested on: Enterococcus faecium
Assay: Antimicrobial activity against vancomycin-resistant Enterococcus faecium
Assay type: functional

Row | Compound | MIC [µg/mL]
22 | CCCCC/C(NC(C)CCCN(CC)CC)=C1\C(=O)C(CCSC)N(C(=O)CC(C)CC(C)(C)C)C1=O (stereo not given) | 8 (≈ 14.5 µM)
23 | CCCCCCCCCCC/C(NCCCOC(C)C)=C1/C(=O)N[C@@H](CCCC(=O)NCCCOC(C)C)C1=O | > 64
24 | CCCCCCCCCCC/C(NCCCOC(C)C)=C1\C(=O)[C@@H]2CCCC(=O)N2C1=O | > 64

Tested on: Streptococcus pneumoniae
Assay: Antimicrobial activity against erythromycin-susceptible Streptococcus pneumoniae ATCC 49619
Assay type: functional

Row | Compound | MIC [µg/mL]
25 | CCCCC/C(NC(C)CCCN(CC)CC)=C1\C(=O)C(CCSC)N(C(=O)CC(C)CC(C)(C)C)C1=O (stereo not given) | 8 (≈ 14.5 µM)
26 | CCCCCCCCCCC/C(NCCCOC(C)C)=C1/C(=O)N[C@@H](CCCC(=O)NCCCOC(C)C)C1=O | > 64
27 | CCCCCCCCCCC/C(NCCCOC(C)C)=C1\C(=O)[C@@H]2CCCC(=O)N2C1=O | > 64

Tested on: Haemophilus influenzae
Assay: Antimicrobial activity against Haemophilus influenzae ATCC 31517 MMSA
Assay type: functional

Row | Compound | MIC [µg/mL]
28 | CCCCC/C(NC(C)CCCN(CC)CC)=C1\C(=O)C(CCSC)N(C(=O)CC(C)CC(C)(C)C)C1=O (stereo not given) | > 64
29 | CCCCCCCCCCC/C(NCCCOC(C)C)=C1/C(=O)N[C@@H](CCCC(=O)NCCCOC(C)C)C1=O | > 64
30 | CCCCCCCCCCC/C(NCCCOC(C)C)=C1\C(=O)[C@@H]2CCCC(=O)N2C1=O | > 64

Tested on: Haemophilus influenzae
Assay: Antimicrobial activity against LS2 Efflux knock-out Haemophilus influenzae
Assay type: functional

Row | Compound | MIC [µg/mL]
31 | CCCCC/C(NC(C)CCCN(CC)CC)=C1\C(=O)C(CCSC)N(C(=O)CC(C)CC(C)(C)C)C1=O (stereo not given) | 8 (≈ 14.5 µM)
32 | CCCCCCCCCCC/C(NCCCOC(C)C)=C1/C(=O)N[C@@H](CCCC(=O)NCCCOC(C)C)C1=O | 8 (≈ 14.1 µM)
33 | CCCCCCCCCCC/C(NCCCOC(C)C)=C1\C(=O)[C@@H]2CCCC(=O)N2C1=O | 4 (≈ 8.92 µM)

Tested on: Escherichia coli
Assay: Antimicrobial activity against Escherichia coli ATCC 25922
Assay type: functional

Row | Compound | MIC [µg/mL]
34 | CCCCC/C(NC(C)CCCN(CC)CC)=C1\C(=O)C(CCSC)N(C(=O)CC(C)CC(C)(C)C)C1=O (stereo not given) | > 32
35 | CCCCCCCCCCC/C(NCCCOC(C)C)=C1/C(=O)N[C@@H](CCCC(=O)NCCCOC(C)C)C1=O | > 32
36 | CCCCCCCCCCC/C(NCCCOC(C)C)=C1\C(=O)[C@@H]2CCCC(=O)N2C1=O | > 32

Tested on: Escherichia coli
Assay: Antimicrobial activity against Escherichia coli 50
Assay type: functional

Row | Compound | MIC [µg/mL]
37 | CCCCC/C(NC(C)CCCN(CC)CC)=C1\C(=O)C(CCSC)N(C(=O)CC(C)CC(C)(C)C)C1=O (stereo not given) | > 32
38 | CCCCCCCCCCC/C(NCCCOC(C)C)=C1/C(=O)N[C@@H](CCCC(=O)NCCCOC(C)C)C1=O | > 32
39 | CCCCCCCCCCC/C(NCCCOC(C)C)=C1\C(=O)[C@@H]2CCCC(=O)N2C1=O | > 32

Tested on: Pseudomonas aeruginosa
Assay: Antimicrobial activity against Pseudomonas aeruginosa ATCC 27853
Assay type: functional

Row | Compound | MIC [µg/mL]
40 | CCCCC/C(NC(C)CCCN(CC)CC)=C1\C(=O)C(CCSC)N(C(=O)CC(C)CC(C)(C)C)C1=O (stereo not given) | > 32
41 | CCCCCCCCCCC/C(NCCCOC(C)C)=C1/C(=O)N[C@@H](CCCC(=O)NCCCOC(C)C)C1=O | > 32
42 | CCCCCCCCCCC/C(NCCCOC(C)C)=C1\C(=O)[C@@H]2CCCC(=O)N2C1=O | > 32

Tested on: Escherichia coli
Assay: Antimicrobial activity against Escherichia coli 49
Assay type: functional

Row | Compound | MIC [µg/mL]
43 | CCCCC/C(NC(C)CCCN(CC)CC)=C1\C(=O)C(CCSC)N(C(=O)CC(C)CC(C)(C)C)C1=O (stereo not given) | > 32
44 | CCCCCCCCCCC/C(NCCCOC(C)C)=C1/C(=O)N[C@@H](CCCC(=O)NCCCOC(C)C)C1=O | > 32
45 | CCCCCCCCCCC/C(NCCCOC(C)C)=C1\C(=O)[C@@H]2CCCC(=O)N2C1=O | > 32
